Peptide text beside a SMILES is read from it. * marks the point of attachment. Cbz = O=C(OCc1ccccc1)*
Experiments:
[1] = tested on: FATP4 in intestinal cells; conditions: animal studies; cited from earlier work
[2] = tested on: fatty acid transport protein 4 (FATP4); test: Immunoblot analysis of FATP4 in the RPE of mice treated daily with drug; format: in vivo, mouse; conditions: one-month-old mice treated daily, oral; Ezetimibe 10 mg/kg, Simvastatin 30 mg/kg; vs DMSO
From the text: Actin was detected as the loading control.

RPE65 isomerase = molecular target: T1, RPE65 isomerase (Homo sapiens, UniProt Q16518); conditions: in vitro; cited from earlier work
T1 sequence (Q16518 1-533): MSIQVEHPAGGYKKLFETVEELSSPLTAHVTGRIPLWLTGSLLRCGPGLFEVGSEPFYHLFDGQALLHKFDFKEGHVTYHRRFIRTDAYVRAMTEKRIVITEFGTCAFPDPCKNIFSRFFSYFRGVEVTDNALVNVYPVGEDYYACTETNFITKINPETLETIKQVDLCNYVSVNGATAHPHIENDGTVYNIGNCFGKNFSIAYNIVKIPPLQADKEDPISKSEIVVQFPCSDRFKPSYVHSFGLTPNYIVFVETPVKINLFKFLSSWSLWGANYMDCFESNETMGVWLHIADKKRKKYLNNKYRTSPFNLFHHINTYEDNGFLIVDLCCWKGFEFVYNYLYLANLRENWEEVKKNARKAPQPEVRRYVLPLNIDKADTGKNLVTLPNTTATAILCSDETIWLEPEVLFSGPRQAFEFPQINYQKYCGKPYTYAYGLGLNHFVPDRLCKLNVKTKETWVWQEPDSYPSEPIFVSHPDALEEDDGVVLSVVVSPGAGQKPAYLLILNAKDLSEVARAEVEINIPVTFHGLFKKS

[3] = tested on: S-opsin in retinal explants; test: Protease inhibitor assay: immunoblot of S-opsin in retinal explants; format: cell-based, mouse; conditions: 5 hours
From the text: OS, outer segments; ONL, Outer nuclear layer; OPL, outer plexiform layer. Scale bar, 20-μm. (B) Percentage of Sopsin mislocalization estimated by dividing S-opsin immunofluorescence in the OPL by the sum of immunofluorescence in the OPL and OS. Note the decrease in S-opsin mislocalization in KI;Fatp4^−/− mice. (C,D) Immunoblot analysis of S-opsin in retinal explants treated with the indicated concentrations of MG132 (C) or pepstatin A (D). DMSO was used in the MG132 and pepstatin A null controls. Histograms show relative immunoblot intensities of S-opsin in MG132-treated and pepstatin A-treated retinas versus DMSO-treated controls. (E) Representative immunoblot analysis of M-opsin in Triton X-100 (Tx)-soluble and -insoluble retinal fractions separated by ultracentrifugation (right panel). […] (F) Percentages of Tx-soluble and -insoluble Mopsin in WT, KI, and KI;Fatp4^−/− mice are estimated from the immunoblot intensities in (E).
Immunoblot analysis Protein samples were separated by SDS-PAGE and transferred to an Immobilon-P membrane. The membrane was incubated in blocking buffer, primary antibody, and horseradish peroxidase-conjugated anti-rabbit or mouse IgG secondary antibody. Antibodies against RPE65 (63), LRAT (64, 65), FATP4 (66), β-actin, rhodopsin, M-opsin (MilliporeSigma Co.), S-opsin (Santa Cruz Biotechnology) were used as the primary antibodies. Immunoblots were visualized with the ECL Prime Western blotting detection reagent and ImageQuant LAS 4000 (48). Signal intensity of each band was quantified using ImageQuant TL software.
Protease inhibitor assay Eyes were enucleated from euthanized 4-week-old mice, and the corneas and lenses were removed. The neural retinas dissected from the eyecups were maintained in the DMEM-F12 medium (Thermo Fisher Scientific Inc.) supplemented with 10% fetal bovine serum and antibiotics in a 5% CO2 incubator at 37° C. After incubating for 5 hours in the presence of a series of increasing concentrations of MG132 (0˜25 μM) or pepstatin A (0˜30 μM), the retinas were subjected to immunoblot analysis.

[4] = molecular target: T2, mutated RPE65 (R91W KI mice) (Mus musculus, UniProt Q91ZQ5, R91W); conditions: cited from earlier work
T2 construct: host or cells: R91W knock-in (KI) mice
T2 sequence (Q91ZQ5 1-533 R91W): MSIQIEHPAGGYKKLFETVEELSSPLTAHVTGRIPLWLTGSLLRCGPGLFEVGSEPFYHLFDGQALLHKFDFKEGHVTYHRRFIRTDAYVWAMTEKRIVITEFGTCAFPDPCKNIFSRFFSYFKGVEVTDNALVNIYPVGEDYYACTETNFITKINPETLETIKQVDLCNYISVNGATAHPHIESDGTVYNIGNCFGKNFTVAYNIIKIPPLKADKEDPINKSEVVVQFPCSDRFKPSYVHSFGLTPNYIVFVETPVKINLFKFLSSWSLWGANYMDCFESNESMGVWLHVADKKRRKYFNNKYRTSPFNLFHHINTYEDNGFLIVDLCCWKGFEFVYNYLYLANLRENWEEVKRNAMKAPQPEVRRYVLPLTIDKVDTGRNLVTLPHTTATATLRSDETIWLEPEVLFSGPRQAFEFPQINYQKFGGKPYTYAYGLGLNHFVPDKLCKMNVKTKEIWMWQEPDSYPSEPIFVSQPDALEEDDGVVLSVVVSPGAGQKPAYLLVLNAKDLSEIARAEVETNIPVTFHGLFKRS

In the case of `O=C1[C@H](CC[C@H](O)c2ccc(F)cc2)[C@@H](c2ccc(O)cc2)N1c1ccc(F)cc1` [Ezetimibe], the “expression of FATP4 in intestinal cells” value [1] is listed as “markedly reduced expression of FATP4” and the “expression levels of FATP4 in the retinal pigment epithelium (RPE)” value [2] is listed as “reduced expression levels”.
For `CCCCCCCCCCCCCCCCCCCCCCCC(=O)SCCNC(=O)CCNC(=O)[C@H](O)C(C)(C)COP(=O)(O)OP(=O)(O)OC[C@H]1O[C@@H](n2cnc3c(N)ncnc32)[C@H](O)[C@@H]1OP(=O)(O)O` [lignoceroyl (C24:0)-CoA], the “synthesis of 11-cis-retinol (11cROL)” value (RPE65 isomerase) is given as “inhibited the synthesis”.
For pepstatin A, the “relative amount of S-opsin, increase vs DMSO-treated retinas” value (from here on “relative amount of S-opsin, increase”) ([3]; KI retinas, pepstatin A (0~30 μM)) was about 55% and the “relative amount of S-opsin, increase” value ([3]; KI;Fatp4−/− retinas, pepstatin A (0~30 μM)) was about 43%.
In the case of `CC(C)C[C@@H](C=O)NC(=O)[C@H](CC(C)C)NC(=O)[C@H](CC(C)C)NC(=O)OCc1ccccc1` [MG132] (Cbz-Leu-Leu-Leu-aldehyde), the “relative amount of S-opsin, increase” value ([3]; KI retinas, MG132 (0~25 μM)) is reported as 3 fold and the “relative amount of S-opsin, increase” value ([3]; KI;Fatp4−/− retinas, MG132 (0~25 μM)) is reported as 1.6 fold.
For `O=C(O)CCCc1ccccc1` [4-phenylbutyrate], the “elevation of 11cRAL” value ([4]; KI mice) is given as 96% and the “function of mutated RPE65; preservation of photoreceptors and vision” value ([4]; systemic administration, mouse model of LCA) is given as “could partially rescue the function of mutated RPE65”.
In the case of `CCCCCCCCCCCCCCCC(=O)SCCNC(=O)CCNC(=O)[C@H](O)C(C)(C)COP(=O)(O)OP(=O)(O)OC[C@H]1O[C@@H](n2cnc3c(N)ncnc32)[C@H](O)[C@@H]1OP(=O)(O)O` [palmitoyl (C16:0)-CoA], the “synthesis of 11-cis-retinol (11cROL)” value (RPE65 isomerase) is listed as “promoted the synthesis”.
